The target in this assay is T1, PlzA (BB0733) (Borreliella burgdorferi, UniProt O51675).
T1 construct: gene BB_0733; PilZN3-PilZ domains
Briefly: SAXS with and without ligand (Kratky plots). The assay is classed as binding. To be noted: 33-135 µM PlzA, 270 µM c-di-GMP; 500 mM NaCl, 20 mM Na2HPO4, pH 7.4; ligand-induced conformational change.

T1 sequence (O51675 entry or part of it): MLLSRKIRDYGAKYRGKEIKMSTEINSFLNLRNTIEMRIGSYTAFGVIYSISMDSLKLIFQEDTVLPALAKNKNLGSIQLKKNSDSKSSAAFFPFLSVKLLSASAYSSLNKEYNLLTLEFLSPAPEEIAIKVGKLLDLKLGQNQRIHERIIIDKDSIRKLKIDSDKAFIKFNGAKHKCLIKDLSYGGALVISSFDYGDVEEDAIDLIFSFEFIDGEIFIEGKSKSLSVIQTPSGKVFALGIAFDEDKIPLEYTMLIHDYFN

In the case of `Nc1nc2c(ncn2[C@@H]2O[C@@H]3COP(=O)(O)O[C@H]4[C@@H](O)[C@H](n5cnc6c(=O)[nH]c(N)nc65)O[C@@H]4COP(=O)(O)O[C@H]3[C@H]2O)c(=O)[nH]1` [c-di-GMP, bis-(3′-5′)-cyclic dimeric guanosine monophosphate], the “SAXS with and without ligand (Kratky plots)” value is “confirming a major structural rearrangement upon binding of c-di-GMP”.

Source of the values: article PMC8323883, “PlzA is a bifunctional c-di-GMP biosensor that promotes tick and mammalian host-adaptation of Borrelia burgdorferi” (PLoS Pathogens, 2021).
